In ChEMBL document CHEMBL4483862, “Open-source discovery of chemical leads for next-generation chemoprotective antimalarials” (2018):

Test system: Plasmodium berghei
Assay: Luciferase/luciferin-expressing antifolate-resistant parasites were used to infect a culture of HepG2 cells that were pre-incubated with compounds. Infected hepatocytes emit light due to the luciferase reaction. Assay results are presented as the percent inhibition of light emission compared to control. […]
Type: functional
Details: sporozoite; for IC90: read-out: LUCIFERASE INFECTION ASSAY - IC90
[1] = read-out: LUCIFERASE INFECTION ASSAY - IC50

Row | SMILES | IC90 | IC50 [1] | further results
1 | Cc1ccc(-c2noc(CCCN3CCN(c4cnn(-c5ccccc5)c(=O)c4Cl)CC3)n2)cc1 | 5.31 µM | – | IC50 (HEPG2TOX_HILL_SLOPE 2.5, HEPG2TOX_R_SQUARED 0.985, PBLUC_HILL_SLOPE 2.59, PBLUC_R_SQUARED 0.752, read-out: LUCIFERASE INFECTION ASSAY - IC50): 2.28 µM
2 | Cc1nc(-c2ccc3c(c2)CC(=O)N3C)cs1 | > 10 µM | > 10 µM | –
3 | Cc1cc(N2CCN(CC(=O)N(C)C)CC2)nc2c(C(C)C)cccc12 | 6.13 µM | – | IC50 (PBLUC_HILL_SLOPE 64.7, PBLUC_R_SQUARED 0.2, read-out: LUCIFERASE INFECTION ASSAY - IC50): 5.93 µM
4 | O=C(COc1ccc(F)cc1)N1CCC(Cc2ccccc2)CC1 | > 10.1 µM | – | IC50 (PBLUC_HILL_SLOPE 1.27, PBLUC_R_SQUARED 0.405, read-out: LUCIFERASE INFECTION ASSAY - IC50): 4.23 µM
5 | Cc1onc(-c2ccccc2)c1-c1csc(Nc2cc(C(F)(F)F)cc(C(F)(F)F)c2)n1 | 3.88 µM | – | IC50 (FFLUC_HILL_SLOPE 38.4, FFLUC_R_SQUARED 0.44, HEPG2TOX_HILL_SLOPE 9.25, HEPG2TOX_R_SQUARED 0.968, PBLUC_HILL_SLOPE 81.8, PBLUC_R_SQUARED 0.627, read-out: LUCIFERASE INFECTION ASSAY - IC50): 3.78 µM
6 | Cc1cc(C(=O)Cn2nnc3ccccc3c2=O)c(C)n1-c1ccccc1F | 3.8 µM | – | IC50 (PBLUC_HILL_SLOPE 0.371, 0.679, PBLUC_R_SQUARED 0.784, 0.965, read-out: LUCIFERASE INFECTION ASSAY - IC50): 0.126 µM
7 | CN1/C(=C\Sc2ccccc2[N+](=O)[O-])C(C)(C)c2ccccc21 | > 10 µM | – | IC50 (HEPG2TOX_HILL_SLOPE 1.18, HEPG2TOX_R_SQUARED 0.48, PBLUC_HILL_SLOPE 2.15, PBLUC_R_SQUARED 0.378, read-out: LUCIFERASE INFECTION ASSAY - IC50): 8.07 µM
8 | Cc1nc(-c2ccccn2)nc(NCc2ccccc2)c1Cl | 9.83 µM | – | IC50 (PBLUC_HILL_SLOPE 11, PBLUC_R_SQUARED 0.469, read-out: LUCIFERASE INFECTION ASSAY - IC50): 8.06 µM
9 | O=C(NNC(=O)c1csc(COc2ccccc2Cl)n1)c1ccc(Cl)cc1 | 7.14 µM | – | IC50 (FFLUC_HILL_SLOPE 94.2, FFLUC_R_SQUARED 0.775, HEPG2TOX_HILL_SLOPE 11.4, HEPG2TOX_R_SQUARED 0.575, PBLUC_HILL_SLOPE 4.49, PBLUC_R_SQUARED 0.337, read-out: LUCIFERASE INFECTION ASSAY - IC50): 4.37 µM
10 | O=C(CN1CCN(C/C=C/c2ccccc2)CC1)NC(c1ccccc1)c1ccccc1 | > 10 µM | > 10 µM | –
11 | O=C(C1=NNCC1c1ccccc1)c1ccc2ccccc2c1 (stereo not given) | > 11 µM | – | IC50 (HEPG2TOX_HILL_SLOPE 1.14, HEPG2TOX_R_SQUARED 0.985, PBLUC_HILL_SLOPE 1.79, PBLUC_R_SQUARED 0.146, read-out: LUCIFERASE INFECTION ASSAY - IC50): 5.28 µM
12 | Cc1nc(-c2ccc(CCNC(=O)c3ccc(S(C)(=O)=O)c([N+](=O)[O-])c3)cc2)cs1 | 5.46 µM | – | IC50 (HEPG2TOX_HILL_SLOPE 14.7, HEPG2TOX_R_SQUARED 0.837, PBLUC_HILL_SLOPE 381, PBLUC_R_SQUARED 0.298, read-out: LUCIFERASE INFECTION ASSAY - IC50): 5.43 µM
13 | CCS(=O)(=O)N1CCC(C(=O)N(Cc2ccccc2)c2nc(-c3ccc(F)cc3)cs2)CC1 | > 10 µM | – | IC50 (PBLUC_HILL_SLOPE 11.3, PBLUC_R_SQUARED 0.297, read-out: LUCIFERASE INFECTION ASSAY - IC50): 8.84 µM
14 | Cc1nc(COc2ccc(C(=O)Nc3nc(-c4ccccn4)cs3)cc2)no1 | 3.46 µM | – | IC50 (HEPG2TOX_HILL_SLOPE 10.4, HEPG2TOX_R_SQUARED 0.524, PBLUC_HILL_SLOPE 14, PBLUC_R_SQUARED 0.305, read-out: LUCIFERASE INFECTION ASSAY - IC50): 2.96 µM
15 | CCOC(=O)c1cnn(-c2ccc(C(=O)N(Cc3ccc(F)cc3)C3CC3)cc2)c1C | > 10 µM | > 10 µM | –
16 | COc1ccc(-c2cc(C(=O)NNC(=O)CC(C)C)[nH]n2)cc1 | > 10 µM | > 10 µM | –
17 | C=CCn1c2ccccc2n2nc(C)c(C(=O)/C=C/c3ccccn3)c12 | 4.04 µM | – | IC50 (PBLUC_HILL_SLOPE 13.1, PBLUC_R_SQUARED 0.157, read-out: LUCIFERASE INFECTION ASSAY - IC50): 3.42 µM
18 | COc1ccc(Cl)cc1N1C(=O)/C(=C\c2sccc2C)N=C1SCc1cc(=O)n2ccsc2n1 | > 10 µM | – | IC50 (FFLUC_HILL_SLOPE 14.8, FFLUC_R_SQUARED 0.288, PBLUC_HILL_SLOPE 0.636, PBLUC_R_SQUARED 0.525, read-out: LUCIFERASE INFECTION ASSAY - IC50): 2.55 µM
19 | CC(C)N1C(=O)N(CCc2ccccc2)C2(CCN(Cc3ccccc3)CC2)C1=O | > 8.14 µM | – | IC50 (HEPG2TOX_HILL_SLOPE 15.6, HEPG2TOX_R_SQUARED 0.916, PBLUC_HILL_SLOPE 3.95, PBLUC_R_SQUARED 0.588, read-out: LUCIFERASE INFECTION ASSAY - IC50): 4.99 µM
20 | CC(Cc1cccs1)N(Cc1ccc(Cl)cc1)C(=O)c1cc(S(=O)(=O)N2CCOCC2)c(Cl)cc1Cl (stereo not given) | > 10 µM | – | IC50 (HEPG2TOX_HILL_SLOPE 6.93, HEPG2TOX_R_SQUARED 0.0438, read-out: LUCIFERASE INFECTION ASSAY - IC50): > 10 µM

Row | SMILES | IC90 | IC50 [1] | further results
21 | CCOc1ccc(-c2cc(-c3ccc(S(C)(=O)=O)cc3)nc3c2cnn3C(C)C)cc1 | > 10 µM | – | IC50 (HEPG2TOX_HILL_SLOPE 15.4, HEPG2TOX_R_SQUARED 0.615, PBLUC_HILL_SLOPE 23, PBLUC_R_SQUARED 0.199, read-out: LUCIFERASE INFECTION ASSAY - IC50): 9.21 µM
22 | O=C(/C=C/c1ccc(N2CCCCC2)c([N+](=O)[O-])c1)c1ccc(O)cc1 | > 10 µM | 9.61 µM | –
23 | O=C(Nc1cccc(Cl)c1)n1nccc1-c1ccc(-c2cccs2)s1 | > 8.55 µM | > 8.55 µM | –
24 | CCCCc1ccc2nc(NC(=O)c3cccnc3-n3cncn3)sc2c1 | > 10 µM | – | IC50 (HEPG2TOX_HILL_SLOPE 2.58, HEPG2TOX_R_SQUARED 0.943, PBLUC_HILL_SLOPE 1.45, PBLUC_R_SQUARED 0.435, read-out: LUCIFERASE INFECTION ASSAY - IC50): 4 µM
25 | CCOC(=O)N1CCN(C2c3ccccc3-c3ccccc32)CC1 | > 10.2 µM | 8.79 µM | –
26 | O=C(C(/C=N/O)=N/Nc1ccc(C(F)(F)F)cc1)c1ccc(Br)cc1 | 3.98 µM | – | IC50 (FFLUC_HILL_SLOPE 17.5, FFLUC_R_SQUARED 0.273, HEPG2TOX_HILL_SLOPE 2.17, HEPG2TOX_R_SQUARED 0.985, PBLUC_HILL_SLOPE 7.45, PBLUC_R_SQUARED 0.303, read-out: LUCIFERASE INFECTION ASSAY - IC50): 2.96 µM
27 | O=c1[nH]c2ccc(-c3csc(-c4ccsc4)n3)cc2[nH]1 | > 10 µM | 4.23 µM | –
28 | Cc1nc2cc(NC(=O)CCCSc3nc4ccccc4[nH]3)ccc2o1 | > 10 µM | – | IC50 (PBLUC_HILL_SLOPE 4.06, PBLUC_R_SQUARED 0.0694, read-out: LUCIFERASE INFECTION ASSAY - IC50): 9.96 µM
29 | Cc1cccc2sc(N(Cc3ccccc3)C(=O)CSC(c3ccccc3)c3ccccc3)nc12 | > 10 µM | > 10 µM | –
30 | Cc1ccc(C(C)C)c(OCc2nnnn2-c2ccc(Br)cc2)c1 | > 8.52 µM | 4.96 µM | –
31 | CCCCc1ccc(NC(=O)/C(C#N)=C/c2ccccc2Cl)cc1 | > 10 µM | > 10 µM | –
32 | O=C(/C=C/c1ccccc1)N1CCN(S(=O)(=O)c2ccccc2C(F)(F)F)CC1 | 6.57 µM | – | IC50 (HEPG2TOX_HILL_SLOPE 0.114, HEPG2TOX_R_SQUARED 0.819, PBLUC_HILL_SLOPE 7.50, 16.5, PBLUC_R_SQUARED 0.237, 0.462, read-out: LUCIFERASE INFECTION ASSAY - IC50): 5.45 µM
33 | O=C(NCC1CC1)Nc1csc(Cc2c(Cl)cccc2Cl)n1 | > 9.26 µM | – | IC50 (PBLUC_HILL_SLOPE 0.58, PBLUC_R_SQUARED 0.694, read-out: LUCIFERASE INFECTION ASSAY - IC50): > 9.26 µM
34 | O=S(=O)(c1ccc2oc(Nc3ccc(Cl)c(C(F)(F)F)c3)nc2c1)N1CCOCC1 | > 10 µM | – | IC50 (HEPG2TOX_HILL_SLOPE 6.56, HEPG2TOX_R_SQUARED 0.393, PBLUC_HILL_SLOPE 2.74, PBLUC_R_SQUARED 0.701, read-out: LUCIFERASE INFECTION ASSAY - IC50): 4.51 µM
35 | Cc1csc(NC(=O)c2ccc3[nH]c4c(c3c2)CC(C)CC4)n1 (stereo not given) | > 10 µM | – | IC50 (PBLUC_HILL_SLOPE 21.4, PBLUC_R_SQUARED 0.315, read-out: LUCIFERASE INFECTION ASSAY - IC50): 9.45 µM
36 | COc1cc(/C=C2\COC/C(=C\c3ccc(O)c(OC)c3)C2=O)ccc1O | > 8.96 µM | – | IC50 (HEPG2TOX_HILL_SLOPE 3.66, HEPG2TOX_R_SQUARED 0.976, PBLUC_HILL_SLOPE 1.71, PBLUC_R_SQUARED 0.466, read-out: LUCIFERASE INFECTION ASSAY - IC50): > 8.96 µM
37 | COc1ccc(C(=O)NN(C)c2nc3ccccc3nc2C(F)(F)F)cc1 | 4.32 µM | – | IC50 (HEPG2TOX_HILL_SLOPE 1.65, HEPG2TOX_R_SQUARED 0.987, PBLUC_HILL_SLOPE 2.07, PBLUC_R_SQUARED 0.843, read-out: LUCIFERASE INFECTION ASSAY - IC50): 1.49 µM
38 | Cc1csc2sc(COC(=O)Nc3ccccc3)c(C)c12 | > 10.4 µM | – | IC50 (HEPG2TOX_HILL_SLOPE 0.302, HEPG2TOX_R_SQUARED 0.714, PBLUC_HILL_SLOPE 1.42, PBLUC_R_SQUARED 0.482, read-out: LUCIFERASE INFECTION ASSAY - IC50): 8.97 µM
39 | COc1ccc(F)cc1-c1csc(-c2ccc(NC(=O)c3cccs3)cc2)n1 | > 10 µM | > 10 µM | –
40 | CCn1c(C)nc2cc(C(=O)N/N=C/c3sc(N4CCCCC4)nc3-c3cccs3)ccc21 | 4.03 µM | – | IC50 (HEPG2TOX_HILL_SLOPE 15, HEPG2TOX_R_SQUARED 0.462, PBLUC_HILL_SLOPE 10.3, PBLUC_R_SQUARED 0.738, read-out: LUCIFERASE INFECTION ASSAY - IC50): 3.26 µM
